{
  "source": "patent US12606795B2",
  "about": "(Thankcome Biological Science and Technology (SuZhou) Co., …, priority 2023, dated 2026)",
  "key": {"[1]": {"assay": "Tolerance to artificial gastric juice", "type": "physicochemical", "settings": "artificial gastric juice pH 2.0, 37° C., at 240 min", "method": "(§1) Gastric juice ([…], 2 g/L NaCl, and 3.2 g/L pepsin, pH 2.0) and intestinal juice (6.8 g/L KH2 PO4, 10 g/L trypsin, and 0.1M NaOH, pH 8.0) were prepared, and then the gastric juice and the intestinal juice were filtered and sterilized using 0.22 μm sterile filter. […] The bacterial cells were washed twice with sterile saline and resuspended in 5 mL saline. A bacterial solution was mixed well with the sterile artificial gastric or intestinal juice in 1:1 (v/v). The mixture was shaken well, and then was placed in a constant-temperature incubator and culture was performed at 37° C."}, "Auto-aggregation": {"assay": "Auto-aggregation", "type": "physicochemical", "settings": "37° C., at 20 h", "method": "The absorbance (OD600 nm) was adjusted to 0.5. Then the bacterial suspension was cultured at 37° C., and its absorbance at 600 nm at 4, 8, 12, 16, 20, and 24 h was measured. The auto-aggregation percentage was calculated using the following formula: […]"}, "mice": {"system": "mice", "assay": "Subchronic toxicity experiment, 90 d", "type": "in vivo", "method": "Animals were randomly divided into four groups: group 1 (half male and half female) (saline, 0 CFU/kg. bw/d), group 2 (half male and half female) (9.2×10^8 CFU/kg. bw/d), group 3 (half female and half male) ([…]), and group 4 (half male and half female) (92×10^8 CFU/kg. bw/d). A new bacterial suspension was prepared per day. The bacterial suspension was intragastrically administrated orally for 90 consecutive days at a dosage volume of 5 mL/kg. bw. Clinical signs were recorded per day, and detailed clinical observation was conducted once a week. The body weight, the food consumption, and the water intake were recorded once a week. At the end of the experimental period, blood samples were collected for hematological and serum biochemical analysis (refer to Embodiment 4). An autopsy was conducted on all animals, and the weight of main organs was recorded. A histopathological examination was performed on the major organs and tissue of all the animals in each group (refer to Embodiment 4). […]\nDetermination of blood glucose: In a certain time interval after administration, at 0, 15, 30, 60, 90 and 120 min, the tail venous blood of the mouse was taken, and the blood glucose level of the mouse was measured using a blood glucose meter measurement method. […]"}, "[2]": {"system": "gouty arthritis mouse model", "assay": "Gouty arthritis mouse model (sodium urate)", "type": "in vivo, BALB/c mice", "settings": "for SOD in mouse ankle joint tissue: model group 1.07, normal 6.07; for MPO in mouse ankle joint tissue: model group 2.49, normal 0.38; for GSH in mouse ankle joint tissue: model group 18.06, normal 47.05; for IL-1β in serum of mice: model group 24.97, normal 12.66; for MDA in mouse ankle joint tissue: model group 26.69, normal 5.74; for IL-10 in serum of mice: model group 36.03, normal 27.20; for IL-6 in serum of mice: model group 90.05, normal 52.97; for TNF-α in serum of mice: model group 249.41, normal 117.58", "method": "Mice were randomly divided into 5 groups: a normal group, a model group, a glucosamine sulfate (positive control) group, an Akk low-concentration experimental (Akk-L) group, and an Akk high-concentration experimental (Akk-H) group, with 10 mice in each group. The mice in the normal group and the mice in the model group were intragastrically administered with distilled water at a dosage of 0.1 mL/10 g. bw per day. The mice in the glucosamine sulfate group were intragastrically administered with glucosamine sulfate at a dosage of 195 mg/kg. bw. The mice in the Akk-L group and the mice in the Akk-H group were intragastrically administered with Akk experimental bacteria at a dosage of 10^8 CFU/kg. bw and 10^9 CFU/kg. bw, respectively, for 7 consecutive days. Then, all experimental mice were anesthetized with isoflurane, and then 50 μL of PBS solution was injected into the tibiotarsal joint (ankle joint) of the right paw of the mouse in the normal group. 50 mg of sodium urate was added to 1 mL of PBS buffer to prepare a suspension. 50 μL of suspension was injected into the tibiotarsal joints (ankle joint) of the right paws of the rest of the mice except the mice in the […] to induce gouty arthritis. After the mice woke up, they were intragastrically administrated with a corresponding sample for 7 d still at the dosage of the sample intragastrically administrated in the previous 7 days.\n0.1 g of mouse ankle joint tissue was weighed and added into […] containing 0.9 mL of saline and mixing was performed. Subsequently, mixed tissue samples were centrifuged at a speed of 4000 rpm for 10 min to obtain liquid supernatant. Next, related indicators in the liquid supernatant of a tissue homogenate was determined using assay kits for MPO, SOD, GSH, and MDA.\nA taken-out whole blood sample of the mouse was centrifuged at 4° C. at 4000 rpm for 10 min to obtain supernatant serum. Serum-related inflammatory indicators were determined using the ELISA kit for IL-6, IL-10, IL-1β, and TNF-α."}, "[3]": {"assay": "Tolerance to artificial intestinal juice", "type": "physicochemical", "settings": "artificial intestinal juice pH 8.0, 37° C., at 240 min", "method": "as §1"}, "[4]": {"settings": "Akk-H 10^9 CFU/kg. bw intragastric"}, "[5]": {"settings": "Akk-L 10^8 CFU/kg. bw intragastric"}},
  "data": [
    {"substance": "Akkermansia muciniphila [AKK PROBIO]", "values": [
      {"measurement": "survival rate in gastric juice", "setting": "[1]", "value": "around 85%"},
      {"measurement": "auto-aggregation", "setting": "Auto-aggregation", "value": "around 52%"},
      {"measurement": "pathological injury to the livers and kidneys", "setting": "mice; 90 d", "value": "no significant pathological injury"},
      {"measurement": "weight of major organs", "setting": "mice; 90 d, heart, liver, spleen, kidneys, thymus, brain, testes, lungs, pancreas, stomach, intestine, vs control group", "value": "substantially no significant difference"},
      {"measurement": "changes of blood glucose per week", "setting": "mice; 90 d, medium-dosage group (27.6×10^8) vs control saline group", "value": "significant difference"},
      {"measurement": "changes of blood glucose per week", "setting": "mice; 90 d, the other groups (low, high dosage) vs control group", "value": "no significant difference"},
      {"measurement": "level of the bile acid both in serum and liver", "setting": "mice; 90 d, the other groups vs control group", "value": "no significant difference"},
      {"measurement": "activity of glutamic oxalacetic transaminase in both serum and liver", "setting": "mice; 90 d, vs control group", "value": "no significant difference"},
      {"measurement": "activity of glutamic pyruvate transaminase in both serum and liver", "setting": "mice; 90 d, vs control group", "value": "no significant difference"},
      {"measurement": "blood glucose regulation ability (glucose tolerance and insulin tolerance)", "setting": "mice; 90 d, vs control group", "value": "no significant difference"},
      {"measurement": "concentration of blood urea nitrogen in serum", "setting": "mice; 90 d, vs control group", "value": "no significant difference"},
      {"measurement": "content of creatinine in serum", "setting": "mice; 90 d, vs control group", "value": "no significant difference"},
      {"measurement": "content of total protein in both serum and liver", "setting": "mice; 90 d, vs control group", "value": "no significant difference"},
      {"measurement": "level of glucose in both serum and liver", "setting": "mice; 90 d, vs control group", "value": "no significant difference"},
      {"measurement": "level of the cholesterol in both liver and serum", "setting": "mice; 90 d, vs control group", "value": "no significant difference"},
      {"measurement": "level of the triglyceride in both liver and serum", "setting": "mice; 90 d, vs control group", "value": "no significant difference"},
      {"measurement": "changes of body weight per week", "setting": "mice; 90 d, vs control saline group", "value": "no significant difference"},
      {"measurement": "changes of food intake per week", "setting": "mice; 90 d, vs control saline group", "value": "no significant difference"},
      {"measurement": "various blood indicators", "setting": "mice; 90 d, vs control saline group", "value": "no significant difference"},
      {"measurement": "death", "setting": "mice; intragastric 90 consecutive days, high, medium, low dosage (92×10^8, 27.6×10^8, 9.2×10^8 CFU/kg. bw/d)", "value": "no death occurs"},
      {"measurement": "SOD in mouse ankle joint tissue", "setting": "[2]; [4]", "value": "4.70 ± 0.16", "unit": "U/mg"},
      {"measurement": "MPO in mouse ankle joint tissue", "setting": "[2]; [4]", "value": "0.77 ± 0.06", "unit": "U/g"},
      {"measurement": "GSH in mouse ankle joint tissue", "setting": "[2]; [4]", "value": "39.28 ± 2.39", "unit": "mg/g"},
      {"measurement": "IL-1β in serum of mice", "setting": "[2]; [4]", "value": "18.48 ± 1.34", "unit": "ng/mL"},
      {"measurement": "MDA in mouse ankle joint tissue", "setting": "[2]; [4]", "value": "12.97 ± 1.20", "unit": "nmol/mg"},
      {"measurement": "IL-10 in serum of mice", "setting": "[2]; [4]", "value": "28.72 ± 1.35", "unit": "ng/mL"},
      {"measurement": "IL-6 in serum of mice", "setting": "[2]; [4]", "value": "58.83 ± 2.60", "unit": "ng/mL"},
      {"measurement": "TNF-α in serum of mice", "setting": "[2]; [4]", "value": "148.87 ± 9.60", "unit": "ng/mL"},
      {"measurement": "SOD in mouse ankle joint tissue", "setting": "[2]; [5]", "value": "2.31 ± 0.43", "unit": "U/mg"},
      {"measurement": "MPO in mouse ankle joint tissue", "setting": "[2]; [5]", "value": "1.97 ± 0.19", "unit": "U/g"},
      {"measurement": "GSH in mouse ankle joint tissue", "setting": "[2]; [5]", "value": "29.89 ± 2.63", "unit": "mg/g"},
      {"measurement": "IL-1β in serum of mice", "setting": "[2]; [5]", "value": "21.83 ± 1.72", "unit": "ng/mL"},
      {"measurement": "MDA in mouse ankle joint tissue", "setting": "[2]; [5]", "value": "20.93 ± 1.30", "unit": "nmol/mg"},
      {"measurement": "IL-10 in serum of mice", "setting": "[2]; [5]", "value": "34.17 ± 2.18", "unit": "ng/mL"},
      {"measurement": "IL-6 in serum of mice", "setting": "[2]; [5]", "value": "71.59 ± 5.46", "unit": "ng/mL"},
      {"measurement": "TNF-α in serum of mice", "setting": "[2]; [5]", "value": "211.76 ± 10.58", "unit": "ng/mL"},
      {"measurement": "survival rate in intestinal juice", "setting": "[3]", "value": "≥ 80", "unit": "%"}
    ]}
  ]
}
